Experiments:
αIIbβ3 integrin = molecular target: T1, αIIbβ3 integrin (Homo sapiens, UniProt P05106+P08514); test: Assay for the inhibition of αIIbβ3 integrin binding (fibrinogen as ligand, integrin captured from platelet lysate); settings: inhibition of specific binding of biotinylated fibrinogen to αIIbβ3 integrin from human platelet lysate
T1 construct: from tissue; host or cells: human platelets (Triton X-100 lysate)
Description: Experiment 2: Assay for the Inhibition of αIIbβ3 Integrin Binding
This experiment was carried out based on the method described in Thromb. Haemostasis, 75, 339 (1996), Blood, 93, 2559 (1999), using fibrinogen as a ligand. According to the method described in the above literatures, assay for the inhibition of αIIbβ3 integrin binding can be achieved by capturing αIIbβ3 integrin from platelet lysate with the use of an activated antibody against αIIbβ3 integrin.
Human platelets were isolated in a conventional manner. At 25° C., the isolated platelets were adjusted to a concentration of 1.25×10^9/ml with TBS+[50 mM Tris-HCl (pH 7.4), 150 mM NaCl, 2 mM CaCl2], and then ⅛ volume of TBS^+ containing 2 mM leupepsin and 10 mM PMSF was added and stirred gently. Nest, 1/9 volume of TBS+ containing 10% Triton X-100 was added and stirred gently. After standing on ice for 30 minutes, a platelet lysate was prepared from the mixture by discarding the insoluble fraction with centrifugation (10,000 g, 15 minutes).
Anti-mouse IgG goat antibody (Jackson Immunoresearch Laboratories, Inc., USA) was adjusted to a concentration of 5 μg/ml with sodium carbonate buffer (pH 9.6) and added to plates at 50 μl/well. The plate was left at 4° C. overnight for immobilization of the antibody. All subsequent steps were done at 25° C., and the procedure for each well was described hereafter.
The well was washed once with TBS^+, and then 200 μl of TBS^+ containing 5% BSA was added to the well and left for one hour for blocking. The well was washed with a reaction solution (TBS^+ containing 0.1% BSA and 0.05% Triton X-100) 4 times, and then 50 μl of anti-human αIIbβ3 integrin activated monoclonal antibody (TAKARA SHUZO CO., LTD, Japan, PT25-2 strain) adjusted to 5 μg/ml with the reaction solution was added to the well. After one hour reaction, the well was washed 4 times with the reaction solution, and 50 μl of the platelet lysate diluted 1:2 with the reaction solution was added to the well. Following 2 hours reaction, the well was washed 4 times with the reaction solution, and 50 μl of the reaction solution was added to the well. Subsequently, 25 μl of a test compound solution adjusted to each concentration with the reaction solution was added, and then mixed with 25 μl of biotinylated fibrinogen (Calbiochem, Germany) adjusted to 2 μg/ml with the reaction solution. The mixture was reacted for one hour. After washing 4 times with the reaction solution, 100 μl of alkaline phosphatase-labeled streptoavidin (Gibco BRL, USA) diluted 1:500 with the reaction solution was added to the well. Following 30 minutes reaction, the well was washed 4 times with the wash solution. Next, 50 μl of the NaDPH solution (Invitrogen, former company name: Gibco BRL, USA) was added and reacted for 20 minutes, and then 50 μl of an amplification solution containing diaphorase and alcohol dehydrogenase (Invitrogen, former company name: Gibco BRL, USA) was added. Color was developed for 20 minutes and the reaction was stopped by adding 50 μl of 0.5 M sulfuric acid.
(§1) The absorbance at 495 nm was measured with a plate reader to obtain a total binding. To obtain a nonspecific binding, EDTA adjusted to 20 mM with the reaction solution was added instead of the test compound solution. A specific binding was calculated by subtracting the nonspecific binding from the total binding.

αvβ3 integrin = αvβ3 integrin (Homo sapiens, UniProt P05106+P06756); test: Assay for the inhibition of αvβ3 integrin binding (vitronectin as ligand); parameters: purchased Chemicon International, Inc., USA; settings: inhibition of specific binding of biotinylated human vitronectin to immobilized αvβ3 integrin
Chain of αvβ3 integrin (P06756 31-889 limits assumed): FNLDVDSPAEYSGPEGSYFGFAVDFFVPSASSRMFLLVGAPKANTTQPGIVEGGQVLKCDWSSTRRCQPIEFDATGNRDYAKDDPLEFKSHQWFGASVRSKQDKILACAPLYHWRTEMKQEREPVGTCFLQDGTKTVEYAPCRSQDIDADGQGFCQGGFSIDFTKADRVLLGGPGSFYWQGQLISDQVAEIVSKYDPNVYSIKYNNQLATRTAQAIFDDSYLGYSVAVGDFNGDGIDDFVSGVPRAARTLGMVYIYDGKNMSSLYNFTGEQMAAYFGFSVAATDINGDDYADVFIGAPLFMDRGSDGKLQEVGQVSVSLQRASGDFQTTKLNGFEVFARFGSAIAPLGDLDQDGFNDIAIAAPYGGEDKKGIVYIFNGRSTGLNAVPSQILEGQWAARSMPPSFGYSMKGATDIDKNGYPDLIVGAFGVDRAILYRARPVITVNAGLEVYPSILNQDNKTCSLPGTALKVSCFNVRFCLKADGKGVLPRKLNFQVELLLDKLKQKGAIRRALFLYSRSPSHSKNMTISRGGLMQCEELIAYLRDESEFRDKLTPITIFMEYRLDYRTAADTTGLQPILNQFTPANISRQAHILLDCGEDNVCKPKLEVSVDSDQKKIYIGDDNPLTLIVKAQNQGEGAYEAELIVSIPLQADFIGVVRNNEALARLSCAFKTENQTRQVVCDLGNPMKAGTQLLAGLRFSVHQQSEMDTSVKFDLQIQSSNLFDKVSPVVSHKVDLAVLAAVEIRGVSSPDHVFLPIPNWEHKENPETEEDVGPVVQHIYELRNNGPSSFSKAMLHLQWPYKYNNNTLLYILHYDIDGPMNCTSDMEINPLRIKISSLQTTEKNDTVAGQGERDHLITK
Chain of αvβ3 integrin (P06756 891-1048 partner limits assumed): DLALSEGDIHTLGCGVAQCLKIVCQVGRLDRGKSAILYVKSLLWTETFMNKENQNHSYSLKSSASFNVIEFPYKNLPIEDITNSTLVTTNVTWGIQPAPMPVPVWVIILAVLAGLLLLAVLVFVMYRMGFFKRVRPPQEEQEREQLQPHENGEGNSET
Chain of αvβ3 integrin (P05106 27-788): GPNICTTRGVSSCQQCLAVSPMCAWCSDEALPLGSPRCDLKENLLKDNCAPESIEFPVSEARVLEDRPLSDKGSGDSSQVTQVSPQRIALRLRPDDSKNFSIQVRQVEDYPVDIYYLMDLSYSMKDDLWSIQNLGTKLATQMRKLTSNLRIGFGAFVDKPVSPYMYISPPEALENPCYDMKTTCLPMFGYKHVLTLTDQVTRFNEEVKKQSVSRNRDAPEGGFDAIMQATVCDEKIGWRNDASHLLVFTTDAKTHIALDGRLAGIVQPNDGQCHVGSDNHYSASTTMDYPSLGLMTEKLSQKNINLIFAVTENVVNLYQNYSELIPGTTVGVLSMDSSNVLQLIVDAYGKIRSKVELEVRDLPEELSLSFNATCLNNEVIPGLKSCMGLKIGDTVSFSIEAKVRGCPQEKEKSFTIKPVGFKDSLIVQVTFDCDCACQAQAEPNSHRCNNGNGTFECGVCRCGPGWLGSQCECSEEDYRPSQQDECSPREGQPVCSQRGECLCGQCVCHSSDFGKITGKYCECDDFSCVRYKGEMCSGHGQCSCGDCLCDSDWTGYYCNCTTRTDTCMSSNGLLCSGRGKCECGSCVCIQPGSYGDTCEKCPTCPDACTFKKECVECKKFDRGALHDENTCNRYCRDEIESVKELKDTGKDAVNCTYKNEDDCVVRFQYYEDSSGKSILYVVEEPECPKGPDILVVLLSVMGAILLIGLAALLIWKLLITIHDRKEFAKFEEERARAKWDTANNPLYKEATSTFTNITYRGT
Description: Experiment 1: Assay for the Inhibition of αvβ3 integrin binding
This experiment was carried out based on the method described in […].
Purified human αvβ3 integrin (Chemicon International, Inc., USA) was adjusted to a concentration of 1 μg/ml with TBS^++ [20 mM Tris-HCl (pH 7.4), 150 mM NaCl, 1 mM CaCl2, 1 mM MgCl2], and the diluted solution was added to plates (Labsystems, Finland) at 50 μl/well. The plate was left at 4° C. overnight for immobilization of the αvβ3 integrin. All subsequent steps were done at 25° C., and the procedure for each well was described hereafter.
The solution was discarded, and then 200 μl of TBS^++ containing 1% BSA (Wako Pure Chemical Industries, Ltd., Japan) was added to the well and left for one hour for blocking. The well was washed with a wash solution (TBS^++ containing 0.01% Tween 20) 4 times, and 50 μl of a reaction solution (TBS^++ containing 0.1% BSA and 0.01% Tween 20) was added to the well. Subsequently, 25 μl of a test compound solution adjusted to each concentration with the reaction solution was added, and then mixed with 25 μl of biotinylated (Amersham Pharmacia Biotech, UK) human vitronectin (Gibco BRL, USA) adjusted to 0.4 μg/ml with the reaction solution. The mixture was reacted for 2 hours. After washing 4 times with the wash solution, 100 μl of peroxidase-labeled streptoavidin (Amersham Pharmacia Biotech, UK) diluted 1:500 with the reaction solution was added to the well. Following 30 minutes reaction, the well was washed 4 times with the wash solution, and 100 μl of a TMB substrate solution (Bio-Rad Laboratories, USA) was added to the well. Color was developed for 20 minutes and the reaction was stopped by adding 100 μl of 0.5 M sulfuric acid.
as §1, with “450” for “495”, “reader (Molecular Devices, USA)” for “reader”

T1 sequence (P08514 32-887 limits assumed): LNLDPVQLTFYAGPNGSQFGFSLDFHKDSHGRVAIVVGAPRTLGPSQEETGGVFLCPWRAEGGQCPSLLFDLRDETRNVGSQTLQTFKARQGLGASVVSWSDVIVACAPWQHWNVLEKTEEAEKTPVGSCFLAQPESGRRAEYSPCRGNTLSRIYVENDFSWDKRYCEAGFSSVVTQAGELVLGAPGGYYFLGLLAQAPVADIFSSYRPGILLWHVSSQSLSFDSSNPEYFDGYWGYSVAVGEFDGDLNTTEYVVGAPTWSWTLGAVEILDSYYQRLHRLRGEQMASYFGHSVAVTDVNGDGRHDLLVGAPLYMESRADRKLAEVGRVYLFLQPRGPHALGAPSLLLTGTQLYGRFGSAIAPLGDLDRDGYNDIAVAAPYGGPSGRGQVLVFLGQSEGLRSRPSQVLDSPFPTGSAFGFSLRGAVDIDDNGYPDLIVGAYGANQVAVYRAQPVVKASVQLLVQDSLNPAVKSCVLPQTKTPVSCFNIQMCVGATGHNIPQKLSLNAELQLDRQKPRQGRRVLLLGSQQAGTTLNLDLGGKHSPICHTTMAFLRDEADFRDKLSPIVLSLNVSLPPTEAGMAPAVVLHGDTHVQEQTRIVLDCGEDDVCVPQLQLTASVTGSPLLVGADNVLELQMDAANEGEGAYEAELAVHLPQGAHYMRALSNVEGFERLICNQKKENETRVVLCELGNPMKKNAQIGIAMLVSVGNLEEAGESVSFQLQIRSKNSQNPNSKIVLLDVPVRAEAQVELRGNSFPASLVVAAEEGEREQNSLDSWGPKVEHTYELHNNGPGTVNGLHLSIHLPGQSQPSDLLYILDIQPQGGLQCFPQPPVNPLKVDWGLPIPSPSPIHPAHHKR
T1 sequence (P08514 891-1039 partner limits assumed): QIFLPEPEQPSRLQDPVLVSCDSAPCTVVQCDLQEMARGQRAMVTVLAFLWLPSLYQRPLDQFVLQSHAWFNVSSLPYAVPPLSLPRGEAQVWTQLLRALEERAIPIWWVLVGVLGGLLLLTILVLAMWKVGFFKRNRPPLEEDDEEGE
T1 sequence (P05106 27-788): as the sequence (P05106 27-788) above

Row | IC50 (αIIbβ3 integrin) [nM] | IC50 (αvβ3 integrin) [nM] | Compound
1 | 380 | 0.094 | CCOC(=O)N[C@@H](CNC(=O)C1CCN(c2cccc(NC3=NCCCN3)c2)CC1)C(=O)O [Ex. 86, (2S)-2-ethoxycarbonylamino-3-[[1-[3-(1,4,5,6-tetrahydropyrimidin-2-yl)aminophenyl]piperidin-4-yl]carbonylamino]propanoic acid]
2 | 26 | 0.051 | CCCCCCOC(=O)N[C@@H](CNC(=O)C1CCN(c2cccc(NC3=NCCCN3)c2)CC1)C(=O)O [Ex. 88, (2S)-2-hexyloxycarbonylamino-3-[[1-[3-(1,4,5,6-tetrahydropyrimidin-2-yl)aminophenyl]piperidin-4-yl]carbonylamino]propanoic acid]
3 | 96 | 0.1 | CCCCCCCCOC(=O)N[C@@H](CNC(=O)C1CCN(c2cccc(NC3=NCCCN3)c2)CC1)C(=O)O [Ex. 89, (2S)-2-octyloxycarbonylamino-3-[[1-[3-(1,4,5,6-tetrahydropyrimidin-2-yl)aminophenyl]piperidin-4-yl]carbonylamino]propanoic acid]
4 | 260 | 0.23 | CCCCCCCCCCOC(=O)N[C@@H](CNC(=O)C1CCN(c2cccc(NC3=NCCCN3)c2)CC1)C(=O)O [Ex. 90, (2S)-2-decyloxycarbonylamino-3-[[1-[3-(1,4,5,6-tetrahydropyrimidin-2-yl)aminophenyl]piperidin-4-yl]carbonylamino]propanoic acid]
5 | 150 | 0.2 | CC(C)(C)COC(=O)N[C@@H](CNC(=O)C1CCN(c2cccc(NC3=NCCCN3)c2)CC1)C(=O)O [Ex. 93, (2S)-2-neopentyloxycarbonylamino-3-[[1-[3-(1,4,5,6-tetrahydropyrimidin-2-yl)aminophenyl]piperidin-4-yl]carbonylamino]propanoic acid]
6 | 60 | 0.21 | COCCOC(=O)N[C@@H](CNC(=O)C1CCN(c2cccc(NC3=NCCCN3)c2)CC1)C(=O)O [Ex. 94, (2S)-2-(2-methoxyethoxycarbonylamino)-3-[[1-[3-(1,4,5,6-tetrahydropyrimidin-2-yl)aminophenyl]piperidin-4-yl]carbonylamino]-propanoic acid]
7 | 60 | 0.08 | C=CCOC(=O)N[C@@H](CNC(=O)C1CCN(c2cccc(NC3=NCCCN3)c2)CC1)C(=O)O [Ex. 96, (2S)-2-allyloxycarbonylamino-3-[[1-[3-(1,4,5,6-tetrahydropyrimidin-2-yl)aminophenyl]piperidin-4-yl]carbonylamino] propanoic acid]
8 | 88 | 0.35 | CCCCCCNC(=O)N[C@@H](CNC(=O)C1CCN(c2cccc(NC3=NCCCN3)c2)CC1)C(=O)O [Ex. 117, (2S)-2-hexylaminocarbonylamino-3-[[1-[3-(1,4,5,6-tetrahydropyrimidin-2-yl)aminophenyl]piperidin-4-yl]carbonylamino]propanoic acid]
9 | 720 | 0.16 | O=C(N[C@@H](CCC(=O)N1CCN(c2cccc(NC3=NCCN3)c2)CC1)C(=O)O)OCc1ccccc1 [Ex. 122]
10 | 1600 | 0.056 | O=C(N[C@@H](CCC(=O)N1CCN(c2cccc(NC3=NCCCCN3)c2)CC1)C(=O)O)OCc1ccccc1 [Ex. 123]

Row | Compound | IC50 (αIIbβ3 integrin) [nM] | IC50 (αvβ3 integrin) [nM]
11 | CCCCOC(=O)N[C@@H](CNC(=O)C1CCN(c2cccc(NC3=NCCCN3)c2)CC1)C(=O)O [Ex. 87, (2S)-2-butoxycarbonylamino-3-[[1-[3-(1,4,5,6-tetrahydropyrimidin-2-yl)aminophenyl]piperidin-4-yl]carbonylamino]propanoic acid] | 110 | 0.1
12 | CC(C)COC(=O)N[C@@H](CNC(=O)C1CCN(c2cccc(NC3=NCCCN3)c2)CC1)C(=O)O [Ex. 92, (2S)-2-isobutoxycarbonylamino-3-[[1-[3-(1,4,5,6-tetrahydropyrimidin-2-yl)aminophenyl]piperidin-4-yl]carbonylamino]propanoic acid] | 72 | 0.066

— patent US7176199B2, “Aryl-substituted alicyclic compound and medical composition comprising the same” (Dainippon Pharmaceutical Co., Ltd., priority 2001, dated 2007)
